# Measurements as given in ChEMBL document CHEMBL3421607, “Design, synthesis and antibacterial activity of cinnamaldehyde derivatives as inhibitors of the bacterial cell division protein FtsZ” (Eur J Med Chem, 2015).
# System: Streptococcus pyogenes
# Assay: Antibacterial activity against penicillin-susceptible Streptococcus pyogenes clinical isolates after 24 hrs by broth microdilution method
# Assay type: functional
# Conditions: not given
row,SMILES,MIC [µg/mL]
1,COc1cc(/C=C/C(=O)n2c(C)nc3ccccc32)cc(OC)c1OC,128
2,COc1ccc(NC(=O)/C=C/c2ccc(Cl)cc2Cl)cc1,128
3,Cc1nc2ccccc2n1C(=O)/C=C/c1ccc([N+](=O)[O-])cc1,64
4,COc1ccccc1/C=C/C(=O)n1c(C)nc2ccccc21,128
5,Cc1nc2ccccc2n1C(=O)/C=C/c1ccccc1Cl,> 128
6,O=C(/C=C/c1ccc(Cl)cc1Cl)N1CCOCC1,> 128
7,COc1ccc(/C=C/C(=O)n2c(C)nc3ccccc32)cc1OC,64
8,"CCCCNC(=O)/C=C/c1ccc(Cl)cc1Cl [N-BUTYL-3-(2,4-DICHLOROPHENYL)ACRYLAMIDE]",64
9,"CCCNC(=O)/C=C/c1ccc(Cl)cc1Cl [3-(2,4-DICHLOROPHENYL)-N-PROPYLACRYLAMIDE]",128

# System: Streptococcus pyogenes
# Assay: Antibacterial activity against penicillin-resistant Streptococcus pyogenes clinical isolates after 24 hrs by broth microdilution method
# Assay type: functional
# Conditions: not given
row,SMILES,MIC [µg/mL]
1,COc1cc(/C=C/C(=O)n2c(C)nc3ccccc32)cc(OC)c1OC,128
2,COc1ccc(NC(=O)/C=C/c2ccc(Cl)cc2Cl)cc1,128
3,Cc1nc2ccccc2n1C(=O)/C=C/c1ccc([N+](=O)[O-])cc1,16
4,COc1ccccc1/C=C/C(=O)n1c(C)nc2ccccc21,> 128
5,O=C(/C=C/c1ccc(Cl)cc1Cl)N1CCOCC1,128
6,COc1ccc(/C=C/C(=O)n2c(C)nc3ccccc32)cc1OC,64
7,"CCCCNC(=O)/C=C/c1ccc(Cl)cc1Cl [N-BUTYL-3-(2,4-DICHLOROPHENYL)ACRYLAMIDE]",128
8,"CCCNC(=O)/C=C/c1ccc(Cl)cc1Cl [3-(2,4-DICHLOROPHENYL)-N-PROPYLACRYLAMIDE]",> 128

# System: Staphylococcus epidermidis
# Assay: Ratio of ciprofloxacin MIC to compound MIC for Staphylococcus epidermidis
# Assay type: functional
# Conditions: not given
row,SMILES,Ratio
1,Cc1nc2ccccc2n1C(=O)/C=C/c1ccccc1Cl,>32

# System: Staphylococcus aureus
# Assay: microbe, parasite or virus in culture
# Assay type: functional
# Conditions: ATCC 29213, 24 h
# Description: Antibacterial activity against methicillin-resistant Staphylococcus aureus ATCC 29213 after 24 hrs by broth microdilution method
row,SMILES,MIC [µg/mL]
1,COc1cc(/C=C/C(=O)n2c(C)nc3ccccc32)cc(OC)c1OC,> 128
2,COc1ccc(NC(=O)/C=C/c2ccc(Cl)cc2Cl)cc1,> 128
3,Cc1nc2ccccc2n1C(=O)/C=C/c1ccc([N+](=O)[O-])cc1,> 128
4,COc1ccccc1/C=C/C(=O)n1c(C)nc2ccccc21,128
5,Cc1nc2ccccc2n1C(=O)/C=C/c1ccccc1Cl,128
6,O=C(/C=C/c1ccc(Cl)cc1Cl)N1CCOCC1,> 128
7,COc1ccc(/C=C/C(=O)n2c(C)nc3ccccc32)cc1OC,> 128
8,"CCCCNC(=O)/C=C/c1ccc(Cl)cc1Cl [N-BUTYL-3-(2,4-DICHLOROPHENYL)ACRYLAMIDE]",> 128
9,"CCCNC(=O)/C=C/c1ccc(Cl)cc1Cl [3-(2,4-DICHLOROPHENYL)-N-PROPYLACRYLAMIDE]",> 128

# System: Staphylococcus aureus
# Assay: Antibacterial activity against penicillin-resistant Staphylococcus aureus clinical isolates after 24 hrs by broth microdilution method
# Assay type: functional
# Conditions: not given
row,SMILES,MIC [µg/mL]
1,COc1cc(/C=C/C(=O)n2c(C)nc3ccccc32)cc(OC)c1OC,> 128
2,COc1ccc(NC(=O)/C=C/c2ccc(Cl)cc2Cl)cc1,> 128
3,Cc1nc2ccccc2n1C(=O)/C=C/c1ccc([N+](=O)[O-])cc1,128
4,COc1ccccc1/C=C/C(=O)n1c(C)nc2ccccc21,64
5,Cc1nc2ccccc2n1C(=O)/C=C/c1ccccc1Cl,64
6,O=C(/C=C/c1ccc(Cl)cc1Cl)N1CCOCC1,> 128
7,COc1ccc(/C=C/C(=O)n2c(C)nc3ccccc32)cc1OC,> 128
8,"CCCCNC(=O)/C=C/c1ccc(Cl)cc1Cl [N-BUTYL-3-(2,4-DICHLOROPHENYL)ACRYLAMIDE]",> 128
9,"CCCNC(=O)/C=C/c1ccc(Cl)cc1Cl [3-(2,4-DICHLOROPHENYL)-N-PROPYLACRYLAMIDE]",> 128

# System: Staphylococcus aureus
# Assay: microbe, parasite or virus in culture
# Assay type: functional
# Conditions: ATCC 25923, 24 h
# Description: Antibacterial activity against penicillin-susceptible Staphylococcus aureus ATCC 25923 after 24 hrs by broth microdilution method
row,SMILES,MIC [µg/mL]
1,COc1cc(/C=C/C(=O)n2c(C)nc3ccccc32)cc(OC)c1OC,> 128
2,COc1ccc(NC(=O)/C=C/c2ccc(Cl)cc2Cl)cc1,> 128
3,Cc1nc2ccccc2n1C(=O)/C=C/c1ccc([N+](=O)[O-])cc1,16
4,COc1ccccc1/C=C/C(=O)n1c(C)nc2ccccc21,64
5,Cc1nc2ccccc2n1C(=O)/C=C/c1ccccc1Cl,32
6,O=C(/C=C/c1ccc(Cl)cc1Cl)N1CCOCC1,> 128
7,COc1ccc(/C=C/C(=O)n2c(C)nc3ccccc32)cc1OC,> 128
8,"CCCCNC(=O)/C=C/c1ccc(Cl)cc1Cl [N-BUTYL-3-(2,4-DICHLOROPHENYL)ACRYLAMIDE]",> 128
9,"CCCNC(=O)/C=C/c1ccc(Cl)cc1Cl [3-(2,4-DICHLOROPHENYL)-N-PROPYLACRYLAMIDE]",> 128

# System: Bacillus subtilis
# Assay: microbe, parasite or virus in culture
# Assay type: functional
# Conditions: ATCC 9372, 24 h
# Description: Antibacterial activity against penicillin-susceptible Bacillus subtilis ATCC 9372 after 24 hrs by broth microdilution method
row,SMILES,MIC [µg/mL]
1,COc1cc(/C=C/C(=O)n2c(C)nc3ccccc32)cc(OC)c1OC,> 128
2,COc1ccc(NC(=O)/C=C/c2ccc(Cl)cc2Cl)cc1,> 128
3,Cc1nc2ccccc2n1C(=O)/C=C/c1ccc([N+](=O)[O-])cc1,128
4,COc1ccccc1/C=C/C(=O)n1c(C)nc2ccccc21,128
5,Cc1nc2ccccc2n1C(=O)/C=C/c1ccccc1Cl,128
6,O=C(/C=C/c1ccc(Cl)cc1Cl)N1CCOCC1,> 128
7,COc1ccc(/C=C/C(=O)n2c(C)nc3ccccc32)cc1OC,> 128
8,"CCCCNC(=O)/C=C/c1ccc(Cl)cc1Cl [N-BUTYL-3-(2,4-DICHLOROPHENYL)ACRYLAMIDE]",> 128
9,"CCCNC(=O)/C=C/c1ccc(Cl)cc1Cl [3-(2,4-DICHLOROPHENYL)-N-PROPYLACRYLAMIDE]",> 128

# System: Escherichia coli
# Assay: microbe, parasite or virus in culture
# Assay type: functional
# Conditions: ATCC 25922, 5 h
# Description: Inhibition of cell division in penicillin-susceptible Escherichia coli ATCC 25922 assessed as filamentation after 5 hrs by phase contrast microscopy
row,SMILES,MIC [µg/mL]
1,COc1cc(/C=C/C(=O)n2c(C)nc3ccccc32)cc(OC)c1OC,> 128
2,COc1ccc(NC(=O)/C=C/c2ccc(Cl)cc2Cl)cc1,> 128
3,Cc1nc2ccccc2n1C(=O)/C=C/c1ccc([N+](=O)[O-])cc1,> 128
4,COc1ccccc1/C=C/C(=O)n1c(C)nc2ccccc21,128
5,Cc1nc2ccccc2n1C(=O)/C=C/c1ccccc1Cl,128
6,O=C(/C=C/c1ccc(Cl)cc1Cl)N1CCOCC1,> 128
7,COc1ccc(/C=C/C(=O)n2c(C)nc3ccccc32)cc1OC,128
8,"CCCCNC(=O)/C=C/c1ccc(Cl)cc1Cl [N-BUTYL-3-(2,4-DICHLOROPHENYL)ACRYLAMIDE]",> 128
9,"CCCNC(=O)/C=C/c1ccc(Cl)cc1Cl [3-(2,4-DICHLOROPHENYL)-N-PROPYLACRYLAMIDE]",> 128

# System: Escherichia coli
# Assay: microbe, parasite or virus in culture
# Assay type: functional
# Conditions: ATCC 25922, 24 h
# Description: Antibacterial activity against penicillin-susceptible Escherichia coli ATCC 25922 after 24 hrs by broth microdilution method
row,SMILES,MIC [µg/mL]
1,COc1cc(/C=C/C(=O)n2c(C)nc3ccccc32)cc(OC)c1OC,128
2,COc1ccc(NC(=O)/C=C/c2ccc(Cl)cc2Cl)cc1,> 128
3,Cc1nc2ccccc2n1C(=O)/C=C/c1ccc([N+](=O)[O-])cc1,128
4,COc1ccccc1/C=C/C(=O)n1c(C)nc2ccccc21,128
5,Cc1nc2ccccc2n1C(=O)/C=C/c1ccccc1Cl,128
6,O=C(/C=C/c1ccc(Cl)cc1Cl)N1CCOCC1,128
7,COc1ccc(/C=C/C(=O)n2c(C)nc3ccccc32)cc1OC,128
8,"CCCCNC(=O)/C=C/c1ccc(Cl)cc1Cl [N-BUTYL-3-(2,4-DICHLOROPHENYL)ACRYLAMIDE]",> 128
9,"CCCNC(=O)/C=C/c1ccc(Cl)cc1Cl [3-(2,4-DICHLOROPHENYL)-N-PROPYLACRYLAMIDE]",128

# System: Staphylococcus epidermidis
# Assay: Ratio of cinnamic acid MIC to compound MIC for Staphylococcus epidermidis
# Assay type: functional
# Conditions: not given
row,SMILES,Ratio
1,Cc1nc2ccccc2n1C(=O)/C=C/c1ccccc1Cl,>32

# System: Bacillus subtilis
# Assay: microbe, parasite or virus in culture
# Assay type: functional
# Conditions: ATCC 9372, 5 h
# Description: Inhibition of cell division in penicillin-susceptible Bacillus subtilis ATCC 9372 assessed as filamentation after 5 hrs by phase contrast microscopy
row,SMILES,MIC [µg/mL]
1,COc1cc(/C=C/C(=O)n2c(C)nc3ccccc32)cc(OC)c1OC,> 128
2,COc1ccc(NC(=O)/C=C/c2ccc(Cl)cc2Cl)cc1,> 128
3,Cc1nc2ccccc2n1C(=O)/C=C/c1ccc([N+](=O)[O-])cc1,> 128
4,COc1ccccc1/C=C/C(=O)n1c(C)nc2ccccc21,> 128
5,Cc1nc2ccccc2n1C(=O)/C=C/c1ccccc1Cl,> 128
6,O=C(/C=C/c1ccc(Cl)cc1Cl)N1CCOCC1,> 128
7,COc1ccc(/C=C/C(=O)n2c(C)nc3ccccc32)cc1OC,> 128
8,"CCCCNC(=O)/C=C/c1ccc(Cl)cc1Cl [N-BUTYL-3-(2,4-DICHLOROPHENYL)ACRYLAMIDE]",> 128
9,"CCCNC(=O)/C=C/c1ccc(Cl)cc1Cl [3-(2,4-DICHLOROPHENYL)-N-PROPYLACRYLAMIDE]",32

# System: Pseudomonas aeruginosa
# Assay: microbe, parasite or virus in culture
# Assay type: functional
# Conditions: ATCC 27853, 24 h
# Description: Antibacterial activity against penicillin-susceptible Pseudomonas aeruginosa ATCC 27853 after 24 hrs by broth microdilution method
row,SMILES,MIC [µg/mL]
1,COc1cc(/C=C/C(=O)n2c(C)nc3ccccc32)cc(OC)c1OC,> 128
2,COc1ccc(NC(=O)/C=C/c2ccc(Cl)cc2Cl)cc1,> 128
3,Cc1nc2ccccc2n1C(=O)/C=C/c1ccc([N+](=O)[O-])cc1,128
4,COc1ccccc1/C=C/C(=O)n1c(C)nc2ccccc21,128
5,Cc1nc2ccccc2n1C(=O)/C=C/c1ccccc1Cl,128
6,O=C(/C=C/c1ccc(Cl)cc1Cl)N1CCOCC1,128
7,COc1ccc(/C=C/C(=O)n2c(C)nc3ccccc32)cc1OC,128
8,"CCCCNC(=O)/C=C/c1ccc(Cl)cc1Cl [N-BUTYL-3-(2,4-DICHLOROPHENYL)ACRYLAMIDE]",128
9,"CCCNC(=O)/C=C/c1ccc(Cl)cc1Cl [3-(2,4-DICHLOROPHENYL)-N-PROPYLACRYLAMIDE]",128

# System: Pseudomonas aeruginosa
# Assay: microbe, parasite or virus in culture
# Assay type: functional
# Conditions: ATCC 27853, 5 h
# Description: Inhibition of cell division in penicillin-susceptible Pseudomonas aeruginosa ATCC 27853 assessed as filamentation after 5 hrs by phase contrast microscopy
row,SMILES,MIC [µg/mL]
1,COc1cc(/C=C/C(=O)n2c(C)nc3ccccc32)cc(OC)c1OC,> 128
2,COc1ccc(NC(=O)/C=C/c2ccc(Cl)cc2Cl)cc1,> 128
3,Cc1nc2ccccc2n1C(=O)/C=C/c1ccc([N+](=O)[O-])cc1,> 128
4,COc1ccccc1/C=C/C(=O)n1c(C)nc2ccccc21,128
5,Cc1nc2ccccc2n1C(=O)/C=C/c1ccccc1Cl,128
6,O=C(/C=C/c1ccc(Cl)cc1Cl)N1CCOCC1,> 128
7,COc1ccc(/C=C/C(=O)n2c(C)nc3ccccc32)cc1OC,> 128
8,"CCCCNC(=O)/C=C/c1ccc(Cl)cc1Cl [N-BUTYL-3-(2,4-DICHLOROPHENYL)ACRYLAMIDE]",> 128
9,"CCCNC(=O)/C=C/c1ccc(Cl)cc1Cl [3-(2,4-DICHLOROPHENYL)-N-PROPYLACRYLAMIDE]",> 128

# System: Staphylococcus aureus
# Assay: microbe, parasite or virus in culture
# Assay type: functional
# Conditions: ATCC 25923, 5 h
# Description: Inhibition of cell division in penicillin-susceptible Staphylococcus aureus ATCC 25923 assessed as ballooning after 5 hrs by phase contrast microscopy
row,SMILES,MIC [µg/mL]
1,COc1cc(/C=C/C(=O)n2c(C)nc3ccccc32)cc(OC)c1OC,64
2,COc1ccc(NC(=O)/C=C/c2ccc(Cl)cc2Cl)cc1,> 128
3,Cc1nc2ccccc2n1C(=O)/C=C/c1ccc([N+](=O)[O-])cc1,0.5
4,COc1ccccc1/C=C/C(=O)n1c(C)nc2ccccc21,> 128
5,Cc1nc2ccccc2n1C(=O)/C=C/c1ccccc1Cl,16
6,O=C(/C=C/c1ccc(Cl)cc1Cl)N1CCOCC1,> 128
7,COc1ccc(/C=C/C(=O)n2c(C)nc3ccccc32)cc1OC,64
8,"CCCCNC(=O)/C=C/c1ccc(Cl)cc1Cl [N-BUTYL-3-(2,4-DICHLOROPHENYL)ACRYLAMIDE]",> 128
9,"CCCNC(=O)/C=C/c1ccc(Cl)cc1Cl [3-(2,4-DICHLOROPHENYL)-N-PROPYLACRYLAMIDE]",64

# System: Staphylococcus epidermidis
# Assay: Antibacterial activity against penicillin-resistant Staphylococcus epidermidis clinical isolates after 24 hrs by broth microdilution method
# Assay type: functional
# Conditions: not given
row,SMILES,MIC [µg/mL]
1,COc1cc(/C=C/C(=O)n2c(C)nc3ccccc32)cc(OC)c1OC,128
2,COc1ccc(NC(=O)/C=C/c2ccc(Cl)cc2Cl)cc1,> 128
3,Cc1nc2ccccc2n1C(=O)/C=C/c1ccc([N+](=O)[O-])cc1,128
4,COc1ccccc1/C=C/C(=O)n1c(C)nc2ccccc21,16
5,Cc1nc2ccccc2n1C(=O)/C=C/c1ccccc1Cl,4
6,O=C(/C=C/c1ccc(Cl)cc1Cl)N1CCOCC1,64
7,COc1ccc(/C=C/C(=O)n2c(C)nc3ccccc32)cc1OC,> 128
8,"CCCCNC(=O)/C=C/c1ccc(Cl)cc1Cl [N-BUTYL-3-(2,4-DICHLOROPHENYL)ACRYLAMIDE]",> 128
9,"CCCNC(=O)/C=C/c1ccc(Cl)cc1Cl [3-(2,4-DICHLOROPHENYL)-N-PROPYLACRYLAMIDE]",> 128

# System: Staphylococcus epidermidis
# Assay: Ratio of curcumin MIC to compound MIC for Staphylococcus epidermidis
# Assay type: functional
# Conditions: not given
row,SMILES,Ratio
1,Cc1nc2ccccc2n1C(=O)/C=C/c1ccccc1Cl,>32
